Measurements as given in ChEMBL document CHEMBL1201862, “PubChem BioAssay data set” (2004).
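Where inhibition never reached the appropriate level, the endpoint shown equals the highest concentration tested. Otherwise, values were interpolated linearly from a five-concentration, 48-hour dose response in 96-well plates. Abbreviation: GI50, concentration required for 50% inhibition of growth.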 Calls of active or inactive are those of the source. Cut-off read from the data, not from the text of the source: active = GI50 up to about 1.1 µM and inactive = higher.

Assays:
Test in all cases: NCI anticancer screen, dose series, 48 h
SN12C = system: SN12C
OVCAR-3 = system: OVCAR-3
NCI-H460 = system: NCI-H460
DLD-1 = system: DLD-1
UACC-62 = system: UACC-62
SK-OV-3 = system: SK-OV-3
SNB-19 = system: SNB-19
U-251 = system: U-251
CCRF-CEM = system: CCRF-CEM
HCC 2998 = system: HCC 2998
LXFL 529 = system: LXFL 529
UO-31 = system: UO-31
SNB-75 = system: SNB-75
SW-620 = system: SW-620
SK-MEL-28 = system: SK-MEL-28
SF-268 = system: SF-268
HOP-18 = system: HOP-18
A498 = system: A498
COLO 205 = system: COLO 205
HCT-15 = system: HCT-15
HT-29 = system: HT-29
A549 = system: A549
XF498 = system: XF498
NCI-H23 = system: NCI-H23
HOP-92 = system: HOP-92
M14 = system: M14
UACC-257 = system: UACC-257
K562 = system: K562
KM12 = system: KM12
EKVX = system: EKVX
SF-295 = system: SF-295
NCI-H226 = system: NCI-H226
HL-60 = system: HL-60
LOX IMVI = system: LOX IMVI
CAKI-1 = system: CAKI-1
RXF 631 = system: RXF 631
SF-539 = system: SF-539
Malme-3M = system: Malme-3M
RPMI-8226 = system: RPMI-8226
MOLT-4 = system: MOLT-4
KM-20L2 = system: KM-20L2
SK-MEL-5 = system: SK-MEL-5
786-0 = system: 786-0
SR = system: SR
TK-10 = system: TK-10
IGROV-1 = system: IGROV-1
HCT-116 = system: HCT-116
RXF 393 = system: RXF 393
OVCAR-5 = system: OVCAR-5
DMS-114 = system: DMS-114
HOP-62 = system: HOP-62
M19-MEL = system: M19-MEL
OVCAR-8 = system: OVCAR-8
ACHN = system: ACHN
SNB-78 = system: SNB-78
SK-MEL-2 = system: SK-MEL-2
NCI-H522 = system: NCI-H522
OVCAR-4 = system: OVCAR-4
DMS-273 = system: DMS-273

Compound: C=C[C@]1(C)CCC2=C(CCC3C2(C)CCC[C@@]3(C)COC(C)=O)C1 (some centres undefined)
- GI50 (SN12C): 16.8 µM (inactive)
- GI50 (OVCAR-3): 17.7 µM (inactive)
- GI50 (NCI-H460): 17.6 µM (inactive)
- GI50 (DLD-1): 18.5 µM (inactive)
- GI50 (UACC-62): 21.1 µM (inactive)
- GI50 (SK-OV-3): 18.5 µM (inactive)
- GI50 (SNB-19): 17.6 µM (inactive)
- GI50 (U-251): 17.8 µM (inactive)
- GI50 (CCRF-CEM): 17.6 µM (inactive)
- GI50 (HCC 2998): 17.7 µM (inactive)
- GI50 (LXFL 529): 17.5 µM (inactive)
- GI50 (UO-31): 18.8 µM (inactive)
- GI50 (SNB-75): 18.1 µM (inactive)
- GI50 (SW-620): 19.3 µM (inactive)
- GI50 (SK-MEL-28): 33.1 µM (inactive)
- GI50 (SF-268): 23.4 µM (inactive)
- GI50 (HOP-18): 25.9 µM (inactive)
- GI50 (A498): 25.4 µM (inactive)
- GI50 (COLO 205): 16.3 µM (inactive)
- GI50 (HCT-15): 16.8 µM
- GI50 (HT-29): 18.7 µM (inactive)
- GI50 (A549): 22.8 µM (inactive)
- GI50 (XF498): 19.9 µM (inactive)
- GI50 (NCI-H23): 22 µM (inactive)
- GI50 (HOP-92): 19.5 µM (inactive)
- GI50 (M14): 20.9 µM (inactive)
- GI50 (UACC-257): 25.2 µM (inactive)
- GI50 (K562): 16.5 µM (inactive)
- GI50 (KM12): 19.3 µM (inactive)
- GI50 (EKVX): 19.5 µM (inactive)
- GI50 (SF-295): 17.8 µM (inactive)
- GI50 (NCI-H226): 18.2 µM (inactive)
- GI50 (HL-60): 19.7 µM (inactive)
- GI50 (LOX IMVI): 18.6 µM (inactive)
- GI50 (CAKI-1): 20.5 µM (inactive)
- GI50 (RXF 631): 16.7 µM (inactive)
- GI50 (SF-539): 20.9 µM (inactive)
- GI50 (Malme-3M): 25 µM (inactive)
- GI50 (RPMI-8226): 17.1 µM (inactive)
- GI50 (MOLT-4): 14.7 µM (inactive)
- GI50 (KM-20L2): 17.5 µM (inactive)
- GI50 (SK-MEL-5): 16.9 µM (inactive)
- GI50 (786-0): 17.3 µM (inactive)
- GI50 (SR): 18.6 µM (inactive)
- GI50 (TK-10): 25.8 µM (inactive)
- GI50 (IGROV-1): 20.7 µM (inactive)
- GI50 (HCT-116): 17.2 µM (inactive)
- GI50 (RXF 393): 22 µM (inactive)
- GI50 (OVCAR-5): 18.2 µM (inactive)
- GI50 (DMS-114): 22 µM (inactive)
- GI50 (HOP-62): 22.9 µM (inactive)
- GI50 (M19-MEL): 21.7 µM (inactive)
- GI50 (OVCAR-8): 19.1 µM (inactive)
- GI50 (ACHN): 17.5 µM (inactive)
- GI50 (SNB-78): 18.7 µM (inactive)
- GI50 (SK-MEL-2): 14.6 µM (inactive)
- GI50 (NCI-H522): 15.4 µM (inactive)
- GI50 (OVCAR-4): 19.7 µM (inactive)

Compound: CCNC(=O)COc1ccc(Br)cc1Br
- GI50 (SN12C): > 100 µM (inactive)
- GI50 (OVCAR-3): > 100 µM (inactive)
- GI50 (NCI-H460): > 100 µM (inactive)
- GI50 (DLD-1): > 100 µM (inactive)
- GI50 (UACC-62): 33.3 µM (inactive)
- GI50 (SK-OV-3): > 100 µM (inactive)
- GI50 (SNB-19): 54.7 µM (inactive)
- GI50 (U-251): > 100 µM (inactive)
- GI50 (DMS-273): > 100 µM (inactive)
- GI50 (CCRF-CEM): > 100 µM (inactive)
- GI50 (HCC 2998): > 100 µM (inactive)
- GI50 (LXFL 529): > 100 µM (inactive)
- GI50 (UO-31): > 100 µM (inactive)
- GI50 (SNB-75): > 100 µM (inactive)
- GI50 (SW-620): > 100 µM (inactive)
- GI50 (SK-MEL-28): > 100 µM (inactive)
- GI50 (SF-268): > 100 µM (inactive)
- GI50 (HOP-18): > 100 µM (inactive)
- GI50 (A498): > 100 µM (inactive)
- GI50 (COLO 205): > 100 µM (inactive)
- GI50 (HCT-15): > 100 µM
- GI50 (HT-29): > 100 µM (inactive)
- GI50 (A549): > 100 µM (inactive)
- GI50 (NCI-H23): > 100 µM (inactive)
- GI50 (HOP-92): 29 µM (inactive)
- GI50 (M14): > 100 µM (inactive)
- GI50 (UACC-257): > 100 µM (inactive)
- GI50 (K562): > 100 µM (inactive)
- GI50 (KM12): > 100 µM (inactive)
- GI50 (EKVX): 1.98 µM (inactive)
- GI50 (SF-295): > 100 µM (inactive)
- GI50 (NCI-H226): > 100 µM (inactive)
- GI50 (HL-60): > 100 µM (inactive)
- GI50 (LOX IMVI): > 100 µM (inactive)
- GI50 (CAKI-1): > 100 µM (inactive)
- GI50 (RXF 631): 69.7 µM (inactive)
- GI50 (SF-539): > 100 µM (inactive)
- GI50 (Malme-3M): > 100 µM (inactive)
- GI50 (RPMI-8226): > 100 µM (inactive)
- GI50 (MOLT-4): > 100 µM (inactive)
- GI50 (KM-20L2): > 100 µM (inactive)
- GI50 (SK-MEL-5): 86.5 µM (inactive)
- GI50 (786-0): > 100 µM (inactive)
- GI50 (SR): > 100 µM (inactive)
- GI50 (IGROV-1): > 100 µM (inactive)
- GI50 (HCT-116): > 100 µM (inactive)
- GI50 (RXF 393): > 100 µM (inactive)
- GI50 (OVCAR-5): > 100 µM (inactive)
- GI50 (DMS-114): > 100 µM (inactive)
- GI50 (HOP-62): > 100 µM (inactive)
- GI50 (M19-MEL): > 100 µM (inactive)
- GI50 (ACHN): > 100 µM (inactive)
- GI50 (SNB-78): > 100 µM (inactive)
- GI50 (SK-MEL-2): 42.9 µM (inactive)
- GI50 (NCI-H522): > 100 µM (inactive)
- GI50 (OVCAR-4): > 100 µM (inactive)
